# The source made the active and inactive calls. No cut-off for these calls is given here.
# Key:
# Protein polybromo-1 [1] = target: T1, Protein polybromo-1 (Homo sapiens, UniProt Q86U86)
# Description: Binding affinity to His6-tagged human recombinant PB1 bromodomain isoform 5 expressed in Escherichia coli BL21(DE3)-R3-pRARE2 cells assessed as change in melting temperature at 10 uM by SyproOrange dye based DSF thermal shift assay
# Protein polybromo-1 [2] = target: T1, Protein polybromo-1; remark: listed apart in the source
# Description: Binding affinity to His6-tagged human recombinant PB1 bromodomain isoform 2 expressed in Escherichia coli BL21(DE3)-R3-pRARE2 cells assessed as change in melting temperature at 10 uM by SyproOrange dye based DSF thermal shift assay
# [3] = target: SWI/SNF-related matrix-associated actin-dependent regulator of chromatin subfamily A member 2 (Homo sapiens) (UniProt P51531); experiment: Binding affinity to His6-tagged human recombinant SMARCA2A bromodomain expressed in Escherichia coli BL21(DE3)-R3-pRARE2 cells assessed as change in melting temperature at 10 uM by SyproOrange dye based DSF thermal shift assay
# [4] = target: T2, SWI/SNF-related matrix-associated actin-dependent regulator of chromatin subfamily A member 4 (Homo sapiens, UniProt P51532); experiment: Binding affinity to His6-tagged human recombinant SMARCA4 bromodomain expressed in Escherichia coli BL21(DE3)-R3-pRARE2 cells assessed as change in melting temperature at 10 uM by SyproOrange dye based DSF thermal shift assay
# [5] = target: SWI/SNF-related matrix-associated actin-dependent regulator of chromatin subfamily A member 2 (Homo sapiens) (UniProt P51531); experiment: Binding affinity to His6-tagged human recombinant SMARCA2B bromodomain expressed in Escherichia coli BL21(DE3)-R3-pRARE2 cells assessed as change in melting temperature at 10 uM by SyproOrange dye based DSF thermal shift assay
# Protein polybromo-1 [6] = target: T1, Protein polybromo-1; remark: listed apart in the source
# Description: Binding affinity to His6-tagged human recombinant PB1 bromodomain 4 expressed in Escherichia coli BL21(DE3)-R3-pRARE2 cells assessed as change in melting temperature at 10 uM by SyproOrange dye based DSF thermal shift assay
# Protein polybromo-1 [7] = target: T1, Protein polybromo-1; remark: listed apart in the source
# Description: Binding affinity to His6-tagged human recombinant PB1 bromodomain isoform 3 expressed in Escherichia coli BL21(DE3)-R3-pRARE2 cells assessed as change in melting temperature at 10 uM by SyproOrange dye based DSF thermal shift assay
# [8] = target: T2, SWI/SNF-related matrix-associated actin-dependent regulator of chromatin subfamily A member 4; experiment: Inhibition of His6-tagged human recombinant SMARCA4 bromodomain expressed in Escherichia coli BL21(DE3)-R3-pRARE2 cells after 30 mins using biotinylated ligand by Alpha screen displacement assay
# Protein polybromo-1 [9] = target: T1, Protein polybromo-1; experiment: Binding affinity to His6-tagged human recombinant PB1 bromodomain isoform 5 expressed in Escherichia coli BL21(DE3)-R3-pRARE2 cells by VP-ITC microcalorimetry
# [10] = Solubility of the compound in DMSO; type: physicochemical
# [11] = target: CREB-binding protein (Homo sapiens) (UniProt Q92793); experiment: Binding affinity to His6-tagged human recombinant CREBBP bromodomain expressed in Escherichia coli BL21(DE3)-R3-pRARE2 cells assessed as change in melting temperature at 10 uM by SyproOrange dye based DSF thermal shift assay
# [12] = target: T2, SWI/SNF-related matrix-associated actin-dependent regulator of chromatin subfamily A member 4; experiment: biochemical
# Description: Binding affinity to His6-tagged human recombinant SMARCA4 bromodomain expressed in Escherichia coli BL21(DE3)-R3-pRARE2 cells by VP-ITC microcalorimetry
# [13] = target: Bromodomain-containing protein 4 (Homo sapiens) (UniProt O60885); experiment: Binding affinity to His6-tagged human recombinant BRD4 bromodomain 1 expressed in Escherichia coli BL21(DE3)-R3-pRARE2 cells assessed as change in melting temperature at 10 uM by SyproOrange dye based DSF thermal shift assay
# [14] = target: T3, E3 ubiquitin-protein ligase TRIM33 (Homo sapiens) (UniProt Q9UPN9); experiment: Binding affinity to His6-tagged human recombinant TRIM33B bromodomain expressed in Escherichia coli BL21(DE3)-R3-pRARE2 cells assessed as change in melting temperature at 10 uM by SyproOrange dye based DSF thermal shift assay
# T3 sequence (whole entry): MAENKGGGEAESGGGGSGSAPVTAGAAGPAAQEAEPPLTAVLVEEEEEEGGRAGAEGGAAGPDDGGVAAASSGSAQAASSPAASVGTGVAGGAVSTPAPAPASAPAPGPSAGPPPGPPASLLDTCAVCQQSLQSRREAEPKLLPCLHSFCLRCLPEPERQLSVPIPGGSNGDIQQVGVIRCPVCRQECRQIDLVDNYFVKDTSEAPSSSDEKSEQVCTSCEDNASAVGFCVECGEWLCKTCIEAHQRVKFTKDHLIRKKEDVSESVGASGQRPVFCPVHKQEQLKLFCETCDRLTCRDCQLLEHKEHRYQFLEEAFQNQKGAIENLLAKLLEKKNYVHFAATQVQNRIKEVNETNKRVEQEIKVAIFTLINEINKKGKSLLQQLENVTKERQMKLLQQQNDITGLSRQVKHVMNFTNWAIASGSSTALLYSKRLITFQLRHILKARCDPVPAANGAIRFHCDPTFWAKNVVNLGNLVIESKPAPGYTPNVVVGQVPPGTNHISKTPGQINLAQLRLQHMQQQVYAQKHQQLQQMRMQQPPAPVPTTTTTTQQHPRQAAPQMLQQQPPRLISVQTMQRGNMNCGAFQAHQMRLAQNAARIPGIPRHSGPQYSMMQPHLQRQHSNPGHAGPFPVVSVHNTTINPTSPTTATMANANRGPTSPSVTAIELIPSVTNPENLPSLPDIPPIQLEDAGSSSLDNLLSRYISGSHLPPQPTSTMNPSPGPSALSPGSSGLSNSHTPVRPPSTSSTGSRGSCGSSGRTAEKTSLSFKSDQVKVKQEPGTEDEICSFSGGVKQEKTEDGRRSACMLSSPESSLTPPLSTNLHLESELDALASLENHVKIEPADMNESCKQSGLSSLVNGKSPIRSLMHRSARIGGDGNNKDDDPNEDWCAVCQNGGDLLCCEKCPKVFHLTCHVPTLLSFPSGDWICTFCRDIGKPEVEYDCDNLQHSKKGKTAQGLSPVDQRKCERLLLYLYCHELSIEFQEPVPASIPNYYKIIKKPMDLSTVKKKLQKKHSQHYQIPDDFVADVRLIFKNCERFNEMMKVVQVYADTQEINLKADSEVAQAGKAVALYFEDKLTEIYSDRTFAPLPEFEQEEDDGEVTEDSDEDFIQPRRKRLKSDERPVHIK
# [15] = target: Histone acetyltransferase KAT2B (Homo sapiens) (UniProt Q92831); experiment: Binding affinity to His6-tagged human recombinant PCAF bromodomain expressed in Escherichia coli BL21(DE3)-R3-pRARE2 cells assessed as change in melting temperature at 10 uM by SyproOrange dye based DSF thermal shift assay
# [16] = target: SWI/SNF-related matrix-associated actin-dependent regulator of chromatin subfamily A member 2 (Homo sapiens) (UniProt P51531); experiment: Inhibition of GFP-fused N-terminal full length human recombinant Wild type SMARCA2 transfected in human U2OS cells assessed as displacement of SMARCA2 from chromatin by measuring FRAP recovery time at 1 to 5 uM by laser scanning inverted microscopy relative to control; type: cell-based
# T1 sequence (Q86U86 whole entry): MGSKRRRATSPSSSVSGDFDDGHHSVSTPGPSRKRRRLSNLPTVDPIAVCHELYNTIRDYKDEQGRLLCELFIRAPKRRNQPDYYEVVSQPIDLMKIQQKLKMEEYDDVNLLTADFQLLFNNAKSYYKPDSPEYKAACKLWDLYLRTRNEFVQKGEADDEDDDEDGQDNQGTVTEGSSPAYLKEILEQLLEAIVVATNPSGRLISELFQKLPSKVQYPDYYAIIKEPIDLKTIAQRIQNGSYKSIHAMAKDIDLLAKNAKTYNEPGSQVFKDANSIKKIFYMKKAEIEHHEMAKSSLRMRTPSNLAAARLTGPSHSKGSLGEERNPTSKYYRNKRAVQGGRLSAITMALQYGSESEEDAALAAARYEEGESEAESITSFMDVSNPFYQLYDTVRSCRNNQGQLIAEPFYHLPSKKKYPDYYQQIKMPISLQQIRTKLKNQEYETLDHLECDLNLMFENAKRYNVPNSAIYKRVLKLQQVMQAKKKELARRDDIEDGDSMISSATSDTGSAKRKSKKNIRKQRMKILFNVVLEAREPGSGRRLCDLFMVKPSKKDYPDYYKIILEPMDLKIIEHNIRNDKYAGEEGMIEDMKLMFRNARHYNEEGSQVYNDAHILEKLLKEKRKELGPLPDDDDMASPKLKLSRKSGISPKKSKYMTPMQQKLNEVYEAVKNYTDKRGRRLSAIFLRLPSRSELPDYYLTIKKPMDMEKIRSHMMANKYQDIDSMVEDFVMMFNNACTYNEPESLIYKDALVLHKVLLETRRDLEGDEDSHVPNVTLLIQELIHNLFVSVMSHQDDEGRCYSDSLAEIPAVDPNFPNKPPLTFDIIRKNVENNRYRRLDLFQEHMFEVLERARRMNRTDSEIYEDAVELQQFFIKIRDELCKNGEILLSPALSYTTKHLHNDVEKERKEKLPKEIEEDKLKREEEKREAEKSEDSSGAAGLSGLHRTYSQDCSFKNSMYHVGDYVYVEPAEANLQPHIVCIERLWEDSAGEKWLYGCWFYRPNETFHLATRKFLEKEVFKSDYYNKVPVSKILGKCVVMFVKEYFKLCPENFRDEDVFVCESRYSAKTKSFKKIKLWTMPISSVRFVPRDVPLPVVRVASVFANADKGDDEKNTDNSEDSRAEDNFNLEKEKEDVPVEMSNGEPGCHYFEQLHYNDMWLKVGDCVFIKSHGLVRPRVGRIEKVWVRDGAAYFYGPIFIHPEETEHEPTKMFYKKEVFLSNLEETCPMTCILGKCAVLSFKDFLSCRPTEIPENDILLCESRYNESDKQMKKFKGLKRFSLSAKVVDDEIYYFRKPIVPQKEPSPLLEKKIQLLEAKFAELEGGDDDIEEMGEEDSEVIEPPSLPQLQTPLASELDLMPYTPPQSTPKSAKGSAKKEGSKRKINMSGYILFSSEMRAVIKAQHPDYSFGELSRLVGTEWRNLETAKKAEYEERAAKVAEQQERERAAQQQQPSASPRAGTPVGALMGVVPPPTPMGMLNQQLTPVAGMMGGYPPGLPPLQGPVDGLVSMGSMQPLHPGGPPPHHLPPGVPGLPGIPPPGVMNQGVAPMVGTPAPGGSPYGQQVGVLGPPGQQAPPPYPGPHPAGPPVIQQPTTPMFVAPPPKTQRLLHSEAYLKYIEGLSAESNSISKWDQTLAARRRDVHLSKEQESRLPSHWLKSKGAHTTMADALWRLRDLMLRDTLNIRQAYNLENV
# T2 sequence (P51532 whole entry): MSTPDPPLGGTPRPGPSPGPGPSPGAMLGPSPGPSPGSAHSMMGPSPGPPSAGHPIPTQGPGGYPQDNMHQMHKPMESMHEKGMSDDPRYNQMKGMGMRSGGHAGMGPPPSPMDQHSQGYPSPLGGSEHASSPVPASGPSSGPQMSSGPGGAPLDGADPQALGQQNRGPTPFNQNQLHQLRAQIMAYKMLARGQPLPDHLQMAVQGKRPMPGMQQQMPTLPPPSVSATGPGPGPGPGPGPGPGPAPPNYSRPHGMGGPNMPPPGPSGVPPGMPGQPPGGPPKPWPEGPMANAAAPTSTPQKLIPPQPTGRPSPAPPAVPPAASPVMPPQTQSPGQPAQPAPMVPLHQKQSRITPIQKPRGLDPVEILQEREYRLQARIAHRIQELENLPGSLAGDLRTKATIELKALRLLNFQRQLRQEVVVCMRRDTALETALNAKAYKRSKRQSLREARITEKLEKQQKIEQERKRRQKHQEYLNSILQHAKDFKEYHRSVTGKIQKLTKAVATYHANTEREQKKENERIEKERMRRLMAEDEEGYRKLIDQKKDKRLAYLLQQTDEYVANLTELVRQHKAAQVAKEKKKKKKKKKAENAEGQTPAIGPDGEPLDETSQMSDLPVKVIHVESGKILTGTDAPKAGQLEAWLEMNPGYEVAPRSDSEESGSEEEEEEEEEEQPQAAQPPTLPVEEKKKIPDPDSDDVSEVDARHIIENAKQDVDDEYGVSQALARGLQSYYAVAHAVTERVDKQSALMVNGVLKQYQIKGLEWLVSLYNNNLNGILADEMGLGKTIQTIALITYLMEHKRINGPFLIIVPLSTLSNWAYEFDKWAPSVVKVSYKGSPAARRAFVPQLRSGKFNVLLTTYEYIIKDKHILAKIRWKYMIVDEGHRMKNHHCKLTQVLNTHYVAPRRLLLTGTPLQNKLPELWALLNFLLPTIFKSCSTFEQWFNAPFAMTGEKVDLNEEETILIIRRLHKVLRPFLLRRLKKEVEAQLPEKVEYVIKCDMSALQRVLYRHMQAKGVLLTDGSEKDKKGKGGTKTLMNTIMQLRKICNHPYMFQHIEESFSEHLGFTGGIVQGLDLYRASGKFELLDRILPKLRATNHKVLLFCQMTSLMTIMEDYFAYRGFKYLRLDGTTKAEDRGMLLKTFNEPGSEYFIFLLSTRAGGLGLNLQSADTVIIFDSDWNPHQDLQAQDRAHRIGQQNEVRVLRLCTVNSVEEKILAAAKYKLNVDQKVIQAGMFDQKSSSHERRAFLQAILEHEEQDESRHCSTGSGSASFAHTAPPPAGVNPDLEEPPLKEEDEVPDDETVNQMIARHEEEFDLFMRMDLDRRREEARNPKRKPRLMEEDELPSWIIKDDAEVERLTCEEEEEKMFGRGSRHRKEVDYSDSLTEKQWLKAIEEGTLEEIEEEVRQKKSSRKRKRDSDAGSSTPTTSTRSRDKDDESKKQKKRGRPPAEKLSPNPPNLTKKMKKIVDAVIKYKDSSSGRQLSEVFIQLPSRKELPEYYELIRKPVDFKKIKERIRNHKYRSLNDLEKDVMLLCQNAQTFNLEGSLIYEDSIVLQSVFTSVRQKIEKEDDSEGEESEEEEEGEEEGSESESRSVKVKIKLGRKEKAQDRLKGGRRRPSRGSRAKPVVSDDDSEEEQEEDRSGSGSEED
# Chain of SWI/SNF-related matrix-associated actin-dependent regulator of chromatin subfamily A member 2 (Homo sapiens) (P51531 whole entry, the tested form may be a part): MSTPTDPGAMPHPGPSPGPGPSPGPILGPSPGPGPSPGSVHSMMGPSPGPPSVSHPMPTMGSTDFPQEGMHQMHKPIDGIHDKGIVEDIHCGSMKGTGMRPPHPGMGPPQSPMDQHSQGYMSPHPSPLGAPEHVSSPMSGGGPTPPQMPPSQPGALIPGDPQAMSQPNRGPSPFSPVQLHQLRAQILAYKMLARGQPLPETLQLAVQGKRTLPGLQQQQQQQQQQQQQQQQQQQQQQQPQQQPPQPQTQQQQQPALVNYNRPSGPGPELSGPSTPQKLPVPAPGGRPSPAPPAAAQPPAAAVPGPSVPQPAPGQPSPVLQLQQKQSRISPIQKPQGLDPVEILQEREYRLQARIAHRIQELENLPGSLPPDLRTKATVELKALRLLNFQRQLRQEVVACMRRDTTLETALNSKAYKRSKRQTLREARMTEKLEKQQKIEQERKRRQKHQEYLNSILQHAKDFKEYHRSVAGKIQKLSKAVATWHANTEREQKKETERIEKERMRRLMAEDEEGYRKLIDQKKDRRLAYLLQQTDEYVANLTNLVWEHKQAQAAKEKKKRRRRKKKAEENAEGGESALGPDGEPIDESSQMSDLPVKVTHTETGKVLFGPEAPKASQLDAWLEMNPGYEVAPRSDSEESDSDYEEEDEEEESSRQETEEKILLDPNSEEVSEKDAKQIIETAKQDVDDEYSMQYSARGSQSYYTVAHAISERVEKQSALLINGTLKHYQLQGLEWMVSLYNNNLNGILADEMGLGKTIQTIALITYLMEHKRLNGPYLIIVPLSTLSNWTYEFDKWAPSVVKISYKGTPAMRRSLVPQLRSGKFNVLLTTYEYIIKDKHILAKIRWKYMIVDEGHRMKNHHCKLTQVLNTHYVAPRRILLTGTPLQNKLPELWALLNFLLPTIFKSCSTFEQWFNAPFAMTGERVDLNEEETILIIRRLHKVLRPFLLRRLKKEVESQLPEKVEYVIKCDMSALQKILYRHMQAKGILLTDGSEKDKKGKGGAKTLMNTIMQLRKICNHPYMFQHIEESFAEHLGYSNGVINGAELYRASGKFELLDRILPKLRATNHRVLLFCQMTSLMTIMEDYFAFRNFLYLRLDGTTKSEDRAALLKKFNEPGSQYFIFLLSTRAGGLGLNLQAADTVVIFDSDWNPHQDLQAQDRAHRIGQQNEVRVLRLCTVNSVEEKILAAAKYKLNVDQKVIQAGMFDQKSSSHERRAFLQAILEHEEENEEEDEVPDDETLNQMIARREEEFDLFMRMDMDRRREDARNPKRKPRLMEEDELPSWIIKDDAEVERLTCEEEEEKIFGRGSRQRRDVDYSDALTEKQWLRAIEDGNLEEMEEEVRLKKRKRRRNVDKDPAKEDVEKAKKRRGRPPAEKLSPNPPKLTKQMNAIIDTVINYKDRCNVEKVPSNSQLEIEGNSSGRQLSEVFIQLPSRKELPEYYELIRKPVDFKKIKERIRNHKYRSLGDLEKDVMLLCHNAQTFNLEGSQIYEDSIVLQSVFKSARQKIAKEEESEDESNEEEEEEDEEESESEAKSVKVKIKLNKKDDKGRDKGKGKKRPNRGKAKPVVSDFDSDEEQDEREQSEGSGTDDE
SMILES,ΔTm (Protein polybromo-1 [1]) [°C],ΔTm (Protein polybromo-1 [2]) [°C],ΔTm [3] [°C],ΔTm [4] [°C],ΔTm [5] [°C],ΔTm (Protein polybromo-1 [6]) [°C],ΔTm (Protein polybromo-1 [7]) [°C],also measured
O=c1nc2n(c3ccccc13)CC/C2=C\N1CCOCC1,4.7,–,–,–,–,–,–,–
O=c1nc2n(c3cccc(Cl)c13)CC/C2=C\N1CCOCC1,7.4,1.9,2.8,2.7,1.7,0.3,0.4,–
COc1cccc2c1c(=O)nc1n2CC/C1=C\N(C)C,-0.7,–,–,–,–,–,–,–
O=c1nc2n(c3cccc(Cl)c13)CC/C2=C\C1CCOCC1,8.2,3.4,3.4,2.8,2.3,1.2,1.6,–
CCN1CCN(/C=C2\CCn3c2nc(=O)c2ccccc23)CC1,4.3,–,–,–,–,–,–,IC50 [8]: 6.9 µM
CN(C)/C=C1\CCn2c1nc(=O)c1ccccc12,4.2,–,–,–,–,–,–,IC50 [8]: 11 µM
CCCN(/C=C1\CCn2c1nc(=O)c1ccccc12)CCC,4.4,–,–,–,–,–,–,–
O=c1nc2n(c3ccccc13)CC/C2=C\N1CCCCC1,5,–,–,–,–,–,–,Kd (Protein polybromo-1 [9]): 1.2 µM; IC50 [8]: 6.2 µM
CN(C)/C=C1\CCn2c1nc(=O)c1c(Cl)cccc12,8.4,2.2,4.4,3.6,2.7,0.4,1,Kd (Protein polybromo-1 [9]): 0.137 µM
CCC(/C=C1\CCn2c1nc(=O)c1c(Cl)cccc12)CC,10.2,7.1,3.5,2.9,2.5,2.7,3.1,K (Protein polybromo-1 [9]): 5.88 ×10⁶ /M
CN1CCN(/C=C2\CCn3c2nc(=O)c2ccccc23)CC1,3.5,–,–,–,–,–,–,IC50 [8]: 7.3 µM
CC(C)N(/C=C1\CCn2c1nc(=O)c1ccccc12)C(C)C,1.1,–,–,–,–,–,–,–
O=c1nc2n(c3ccccc13)CC/C2=C\c1ccoc1,3.7,–,–,–,–,–,–,–
O=c1nc2n(c3cccc(Cl)c13)CC/C2=C\N1CCCCC1,9.8,4.7,6.3,5.3,4.3,0.9,0.8,Kd (Protein polybromo-1 [9]): 0.127 µM; solubility [10]: soluble
CN1CCN(/C=C2\CCn3c2nc(=O)c2c(Cl)cccc23)CC1,10.2,4.3,6.6,5.4,4.2,1.1,1.3,Activity [11]: inactive; Kd [12]: 0.417 µM; K (Protein polybromo-1 [9]): 8.09 ×10⁶ /M; Activity [13]: inactive; Activity [14]: inactive; solubility [10]: soluble; Activity [15]: inactive; inhibition [16]: Active
O=c1nc2n(c3ccccc13)CC/C2=C\N1CCCC1,5.8,–,–,–,–,–,–,Kd (Protein polybromo-1 [9]): 2.3 µM; IC50 [8]: 9.6 µM
CN1CCC(/C=C2\CCn3c2nc(=O)c2c(Cl)cccc23)CC1,6,1.4,1.4,1.1,1,0.8,0.7,–
CCN(/C=C1\CCn2c1nc(=O)c1c(Cl)cccc12)CC,7.3,2.9,3.6,2.8,2.5,0.6,0.2,–
CN(C)/C=C1\CCn2c1nc(=O)c1c(Br)cccc12,6.9,–,–,–,–,–,–,–
CCN(/C=C1\CCn2c1nc(=O)c1ccccc12)CC,4.3,–,–,–,–,–,–,–
CN(C)/C=C1\CCn2c1nc(=O)c1c(O)cccc12,3.4,–,–,–,–,–,–,–
Cc1cccc2c1c(=O)nc1n2CC/C1=C\N(C)C,1.4,–,–,–,–,–,–,–
CCN1CCN(/C=C2\CCn3c2nc(=O)c2c(Cl)cccc23)CC1,9.2,4,4.8,5.6,4.1,0.9,1.4,K (Protein polybromo-1 [9]): 7.05 ×10⁶ /M; Kd (Protein polybromo-1 [9]): 0.142 µM; solubility [10]: soluble
CN(C)/C=C1\CCn2c1nc(=O)c1c(F)cccc12,1.4,–,–,–,–,–,–,–
CC(C)(C)OC(=O)N1CCN(/C=C2\CCn3c2nc(=O)c2ccccc23)CC1,3.7,–,–,–,–,–,–,–
O=c1nc2n(c3cccc(Cl)c13)CC/C2=C\N1CCCC1,6.9,1.2,2.6,1.4,1.3,0.4,0.2,–
O=c1nc2n(c3cccc(Cl)c13)CC/C2=C\C1CCCCC1,6.6,2.7,2.5,2,1.6,0.7,0.4,–
CN1CCCN(/C=C2\CCn3c2nc(=O)c2ccccc23)CC1,2.5,–,–,–,–,–,–,IC50 [8]: 22 µM

# Source: ChEMBL document CHEMBL3822370, “Identification and Development of 2,3-Dihydropyrrolo[1,2-a]quinazolin-5(1H)-one Inhibitors Targeting Bromodomains within the Switch/Sucrose Nonfermenting Complex” (J Med Chem, 2016)
